Patent publication US6310095A, “Inhibitors of protein isoprenyl transferases” (University of Pittsburgh, priority 1998, dated 2001)
Counter-ions that a name gives are not always drawn. Like-named read-outs stand apart in the source and are kept apart here. One block for each compound: values may come before it.

Biological target: T1, protein farnesyltransferase (Rattus norvegicus, UniProt Q02293+Q04631)
T1 construct: Rat brain protein farnesyltransferase activity is measured; from tissue; host or cells: rat brain; purified according to Reiss et al., Cell 62:81-88 (1990), steps one through three
Experiment: in vitro inhibition of protein farnesyltransferase (scintillation proximity assay, biotin-K Ras B fragment)
Assay type: biochemical
Conditions: for inhibition at 10 µM: at 1 × 10^-5 M; for inhibition at 1 µM / inhibition at 0.1 µM / inhibition at 0.01 µM: read-out: % inhibition of farnesyltransferase
Description: The ability of the compounds of the invention to inhibit protein farnesyltransferase or protein geranylgeranyltransferase can be measured according to the method of Moores, et al., J. Biol. Chem. 266: 14603 (1991) or the method of Vogt, et al., J. Biol. Chem. 270:660-664 (1995). In addition, procedures for determination of the inhibition of farnesylation of the oncogene protein Ras are described by Goldstein, et al., J. Biol. Chem., 266:15575-15578 (1991) and by Singh in U.S. Pat. No. 5,245,061.
In addition, in vitro inhibition of protein farnesyltransferase may be measured by the following procedure. Rat brain protein farnesyltransferase activity is measured using an Amersham Life Science commercial scintillation proximity assay kit and substituting a biotin-K Ras B fragment (biotin-[…]CO2 H), 0.1 mM final concentration, for the biotin-lamin substrate provided by Amersham. The enzyme is purified according to Reiss, Y., et al., Cell, 62: 81-88 (1990), utilizing steps one through three.
The % inhibition of protein farnesyltransferase was determined for representative compounds of the invention.

inhibition at 10 µM: > 50%
SMILES: CSCC[C@H](NC(=O)c1ccc(NC(=O)[C@@H]2C[C@@H](O)CN2)cc1-c1ccccc1)C(=O)O [Example 952, N-[4-(4-hydroxyprolinylamino)-2-phenylbenzoyl]methionine]

inhibition at 10 µM: 40%
SMILES: CSCC[C@H](NC(=O)c1ccc(CNC(CO)C(O)c2ccccc2)cc1-c1ccccc1)C(=O)O (stereo partly drawn) [Example 713]

inhibition at 1 µM (at 1 × 10^-6 M): 53%
SMILES: CSCC[C@H](NC(=O)c1ccc(CNc2ccc(C(O)(C(F)(F)F)C(F)(F)F)cc2)cc1-c1ccccc1)C(=O)O [Example 693]

inhibition at 10 µM: 58%
SMILES: CSCC[C@H](NC(=O)c1ccc(NC(=O)c2cccc(N(C)C)c2)cc1-c1ccccc1)C(=O)O [Example 752]

inhibition at 10 µM: 46%
SMILES: CCN(Cc1ccc(C(=O)N[C@@H](CCSC)C(=O)O)c(-c2ccccc2)c1)Cc1cc([N+](=O)[O-])ccc1O [Example 711]

inhibition at 1 µM (at 1 × 10^-6 M): 64%
SMILES: CSCC[C@H](NC(=O)c1ccc(CN(C)C(C)(C)Cc2ccccc2)cc1-c1ccccc1C)C(=O)O [Example 982, N-[4-(N-Methyl-N-(1,1-dimethyl-2-phenylethyl)aminomethyl)-2-(2-methylphenyl)-benzoyl]methionine lithium salt]

inhibition at 0.1 µM (at 1 × 10^-7 M): 86%
SMILES: CSCC[C@H](NC(=O)c1ccc(CN[C@@H](CO)C2CCCCC2)cc1-c1ccccc1C)C(=O)O [Example 604, N-[4-(2-cyclohexylethan-1-ol-2-ylaminomethyl)-2-(2-methylphenyl)benzoyl]methionine Lithium Salt]

inhibition at 0.1 µM (at 1 × 10^-7 M): 96%
SMILES: CSCC[C@H](NC(=O)c1ccc(CN[C@H](/C=C\CC(C)C)CC2CCCCC2)cc1-c1ccccc1C)C(=O)O [Example 526, N-[4-N-(1-Cyclohexyl-6-methylhept-3-en-2-yl)aminomethyl-2-(2-methylphenyl)benzoyl]methionine lithium salt]

inhibition at 1 µM (at 1 × 10^-6 M): 81%
SMILES: CSCC[C@H](NC(=O)c1ccc(CNc2ccc(S(=O)(=O)Nc3onc(C)c3C)cc2)cc1-c1ccccc1C)C(=O)O [Example 726]

% inhibition of farnesyltransferase (at 1 × 10^-6 M): 99%
SMILES: CSCC[C@H](NC(=O)c1ccc(COCc2ccccc2)cc1-c1ccccc1C)C(=O)NS(=O)(=O)c1ccc(C)cc1 [Example 582]

inhibition at 1 µM (at 1 × 10^-6 M): 37%
SMILES: CSCC[C@H](NC(=O)c1ccc(NC(=O)Cc2ccc(C)cc2)cc1-c1ccccc1C)C(=O)O [Example 541, N-[4-N-(4'-methylphenylacetyl)amino-2-(2-methylphenyl)benzoyl]methionine lithium salt]

% inhibition of farnesyltransferase (at 1 × 10^-8 M): 89%
SMILES: CCCCC(OCc1ccc(C(=O)N[C@@H](CCSC)C(=O)O)c(-c2ccccc2C)c1)c1cncs1 (stereo partly drawn) [Example 985]

inhibition at 1 µM (at 1 × 10^-6 M): 95%
SMILES: CSCC[C@H](NC(=O)c1ccc(CN[C@H](CO)Cc2ccccc2)cc1-c1ccccc1C)C(=O)O [Example 727]

inhibition at 0.01 µM (at 1 × 10^-8 M): 85%
SMILES: CSCC[C@H](NC(=O)c1ccc(CN(Cc2ccccc2)c2cccc(C(C)=O)c2)cc1-c1ccccc1C)C(=O)O [Example 845, N-[4-N-(N-benzyl-N-(3-acetylphenyl)aninomethyl)-2-(2-methylphenyl)benzoyl]methionine lithium salt]

inhibition at 0.01 µM (at 1 × 10^-8 M): 95%
SMILES: C=C[C@H](CC1CCCCC1)NCc1ccc(C(=O)N[C@@H](CCSC)C(=O)O)c(-c2ccccc2C)c1 [Example 619, N-[4-(2-cyclohexylprop-1-en-2-ylaminomethyl)-2-(2-methylphenyl)benzoyl]methionine Lithium Salt]

inhibition at 10 µM: 58%
SMILES: CSCC[C@H](NC(=O)c1ccc(NC(=O)Cc2ccccc2[N+](=O)[O-])cc1-c1ccccc1)C(=O)O [Example 757]

inhibition at 1 µM (at 1 × 10^-6 M): 80%
SMILES: CSCC[C@H](NC(=O)c1ccc(CN(Cc2ccoc2)C(C)C)cc1-c1ccccc1C)C(=O)O [Example 832, N-[4-N-(furan-3-ylmethyl)-N-isopropylainomethyl-2-(2-methylphenyl)benzoyl]methionine lithium salt]

inhibition at 1 µM (at 1 × 10^-6 M): 84%
SMILES: CSCC[C@H](NC(=O)c1ccc(CN(CC23CC4CC(CC(C4)C2)C3)c2ccccc2)cc1-c1ccccc1C)C(=O)O [Example 510]

inhibition at 0.01 µM (at 1 × 10^-8 M): 79%
SMILES: CSCC[C@H](NC(=O)c1ccc(CN(C(C)=O)C(CC2CCCCC2)CC2CCCCC2)cc1-c1ccccc1C)C(=O)O [Example 909, N-[4-(N-acetyl-N-(1,3-Dicyclohexylpropan-2-yl)aminomethyl)-2-(2-methylphenyl)-benzoyl]methionine]

inhibition at 1 µM (at 1 × 10^-6 M): 94%
SMILES: CSCC[C@H](NC(=O)c1ccc(CN(Cc2ccccc2)Cc2ccccc2)cc1-c1ccccc1C)C(=O)O [Example 512, N-[4-N,N-dibenzylaminomethyl-2-(2-methylphenyl)benzoyl]methionine lithium salt]

inhibition at 0.1 µM (at 1 × 10^-7 M): 97%
SMILES: CSCC[C@H](NC(=O)c1ccc(CN[C@H](CCCC(C)C)CC2CCCCC2)cc1-c1ccccc1C)C(=O)O [Example 527, N-[4-N-(1-Cyclohexyl-6-methylheptan-2-yl)aminomethyl-2-(2-methylphenyl)benzoyl]methionine lithium salt]

% inhibition of farnesyltransferase (at 1 × 10^-7 M): 90%
SMILES: CSCC[C@H](NC(=O)c1ccc(COCc2cccc(N(C)C)c2)cc1-c1ccccc1C)C(=O)O [Example 941]

inhibition at 1 µM (at 1 × 10^-6 M): 36%
SMILES: CSCC[C@H](NC(=O)c1ccc(CNc2ccccc2CCO)cc1-c1ccccc1)C(=O)O [Example 671]

inhibition at 10 µM: 58%
SMILES: CSCC[C@H](NC(=O)c1ccc(CNc2cccc(CO)c2)cc1-c1ccccc1)C(=O)O [Example 680]

% inhibition of farnesyltransferase (at 1 × 10^-7 M): 49%
SMILES: CSCC[C@H](NC(=O)c1ccc(CSc2nnc(N)s2)cc1-c1ccccc1C)C(=O)O [Example 734]

inhibition at 1 µM (at 1 × 10^-6 M): 32%
SMILES: CSCCC(CO)NCc1ccc(C(=O)N[C@@H](CCSC)C(=O)O)c(-c2ccccc2)c1 (stereo partly drawn) [Example 633]

inhibition at 1 µM (at 1 × 10^-6 M): 83%
SMILES: CSCC[C@H](NC(=O)c1ccc(CNCCSc2ccccc2)cc1-c1ccccc1)C(=O)O [Example 667]

The next lines start with the compound.

SMILES: CSCC[C@H](NC(=O)c1ccc(Sc2ccc3ccccc3c2)cc1-c1ccccc1C)C(=O)O [Example 497]
% inhibition of farnesyltransferase (at 1 × 10^-6 M): 94%

SMILES: CSCC[C@H](NC(=O)c1ccc(OCCOC2CCCCC2)cc1-c1ccccc1C)C(=O)[O-].[Li+] [Example 565]
% inhibition of farnesyltransferase (at 1 × 10^-6 M): 94%

SMILES: CSCC[C@H](NC(=O)c1ccc(CN(CCc2ccccc2)c2ccccc2)cc1-c1ccccc1C)C(=O)O [Example 507]
inhibition at 1 µM (at 1 × 10^-6 M): 96%

SMILES: CCCCON(CCC1CCCCC1)Cc1ccc(C(=O)N[C@@H](CCS(C)(=O)=O)C(=O)O)c(-c2ccccc2C)c1 [Example 298]
% inhibition of farnesyltransferase (at 1 × 10^-6 M): 43%

SMILES: Cc1ccccc1-c1cc(CN(C2CC2)C2(Cc3ccccc3)CCCC2)ccc1C(=O)N[C@@H](CCS(C)(=O)=O)C(=O)O [Example 345]
% inhibition of farnesyltransferase (at 1 × 10^-6 M): 91%

SMILES: COc1ccc(COCc2ccc(C(=O)N[C@@H](CCSC)C(=O)[O-])c(-c3ccccc3C)c2)cc1.[Li+] [Example 935]
% inhibition of farnesyltransferase (at 1 × 10^-7 M): 72%

SMILES: CSCC[C@H](NC(=O)c1ccc(NC(=O)[C@@H](N)COCc2ccccc2)cc1-c1ccccc1)C(=O)O [Example 503, N-[4-(N-2-amino-3-benzyloxypropionyl)amino-2-phenylbenzoyl]methionine]
inhibition at 1 µM (at 1 × 10^-6 M): 57%

SMILES: CSCC[C@H](NC(=O)c1ccc(N2CC(=O)NNC2=O)cc1-c1ccccc1)C(=O)O [Example 224]
% inhibition of farnesyltransferase (at 1 × 10^-6 M): 41%

SMILES: CSCC[C@H](NC(=O)c1ccc(CNCCc2cccs2)cc1-c1ccccc1)C(=O)O [Example 369]
inhibition at 10 µM: 87%

SMILES: CSCC[C@H](NC(=O)c1ccc(NCC(CO)(Cc2ccccc2)Cc2ccccc2)cc1-c1ccccc1C)C(=O)O [Example 475, N-[4-N-(2,2-dibenzyl-3-hydroxypropyl)amino-2-(2-methylphenyl)benzoyl]methionine sodium salt]
inhibition at 1 µM (at 1 × 10^-6 M): 21%

SMILES: CSCC[C@H](NC(=O)c1ccc(CN(C(C)C)C2(CC3CCCCC3)CCCC2)cc1-c1ccccc1C)C(=O)O [Example 344]
% inhibition of farnesyltransferase (at 1 × 10^-6 M): 95%

SMILES: CSCC[C@H](NC(=O)c1ccc(CSCCc2ccccc2)cc1-c1ccccc1C)C(=O)[O-].[Li+] [Example 562]
% inhibition of farnesyltransferase (at 1 × 10^-7 M): 95%

SMILES: CSCC[C@H](NC(=O)c1ccc(COCc2cnc(-c3cccc(Cl)c3)s2)cc1-c1ccccc1C)C(=O)[O-].[Li+] [Example 899]
% inhibition of farnesyltransferase (at 1 × 10^-8 M): 88%

SMILES: CCCCN(C)N(CCC1CCCCC1)Cc1ccc(C(=O)N[C@@H](CCS(C)(=O)=O)C(=O)O)c(-c2ccccc2C)c1 [Example 300]
% inhibition of farnesyltransferase (at 1 × 10^-6 M): 22%

SMILES: CSCC[C@H](NC(=O)c1ccc(CNCCN2CCOCC2)cc1-c1ccccc1)C(=O)O [Example 365]
inhibition at 10 µM: 97%

SMILES: CSCC[C@H](NC(=O)c1ccc(CN(C)CCC2CCCCC2)cc1-c1ccccc1C)C(=O)O [Example 608, N-[4-(N-(2-cyclohexylethyl)-N-methylaminomethyl)-2-(2-methylphenyl)benzoyl]methionine Lithium Salt]
inhibition at 0.01 µM: 91%

SMILES: CSCC[C@H](NC(=O)c1ccc(COCc2ccc(Br)o2)cc1-c1ccccc1C)C(=O)[O-].[Li+] [Example 434]
% inhibition of farnesyltransferase (at 1 × 10^-7 M): 93%

SMILES: CSCC[C@H](NC(=O)c1ccc(CN(Cc2ccccc2)c2cccc(SC)c2)cc1-c1ccccc1C)C(=O)O [Example 851, N-[4-(N-benzyl-N-(3-methylthiophenyl)aminomethyl)-2-(2-methylphenyl)benzoyl]methionine lithium salt]
inhibition at 0.01 µM: 82%
